Measurements taken from US8779779B2, “On-chip cell migration detection” (CapitalBio Corporation, priority 2008, dated 2014).

Test system: Vero-E6 cells
Experiment: Real time inhibition assay of cell migration (on-chip SAM wound edge with cellular impedance sensing)
Assay type: cell-based
Procedure: For at least one of the electrodes, the surface is treated with a chemical coating that inhibits cell adhesion onto the electrode (302). This generates a chemical coat-modified surface on the electrodes. The chemical coating maintains contact with the surface of the electrodes until desorbed by application of an electrical signal capable of desorbing the coating. The chemical coating can be applied by contacting the electrodes with a solution or suspension of coating material in a carrier, or by contacting the electrode with the coating material without a carrier. A background impedance value is measured in absence of cells (304). After measuring the background impedance (Z0), target cells are added to the device (306). A layer of cells is allowed to grow on the surface of the device (308). […] As a result, all the cells grow on the surface of the SiO2 insulation substrate forming a cell monolayer. After incubation, wound edges are formed automatically on the device. Once the cells have grown over the surfaces, an electrical signal is applied to the electrodes, which causes the chemical coating to desorb from the electrodes (310). This provides a cell-free electrode surface surrounded by cells growing on the adjacent insulation. The cell impedance (Zx) is monitored in real-time as the cells grow or migrate across the electrodes (312). Cells growing on the electrodes can cause measurable changes in the electrical properties of the circuit, e.g., impedance; consequently, the rate of cell migration or spreading can be monitored by monitoring electrical properties of the electrodes. The final impedance data is normalized as Zx/Z0 (314). The normalized impedance data reflects the impedance variation induced by the attachment of the cells.
For illustrative purposes, the process 300 is described using an example protocol for monitoring cell migration. An example protocol includes preparing an impedance measuring device (e.g., device 100) for impedance measurement by sterilizing the device. After sterilization, (e.g., in 75% ethanol for 20 minutes and then exposure to UV irradiation for another 30 minutes), a thiol compound is added to the microfluidic cavities. Thiol compound (HS(CH2)11(OCH2CH2)6OH (abbreviated as “EG6”) is obtained from Sigma-Aldrich (St. Louis, Mo.). EG6 (1.5 mM in ethanol) can be added to each microfluidic cavity of the device using a syringe and incubated for 8 hours at room temperature. Then, the microfluidic cavities are washed by ethanol followed by PBS buffer. Before cell seeding, tissue culture media is injected into chambers of the device to read the background impedance value (Z0). […]
At the same time, the impedance (Zx) is measured in real-time with a time resolution of 5 minutes, for example. […]

Compound: COc1cc2c(c(OC)c1OC)-c1ccc(OC)c(=O)cc1[C@@H](NC(C)=O)CC2 [colchicine]
- time point at which the cells heal a wound (t0.1; impedance saturation) (0.1 μM colchicine, Vero-E6 cells, control tc=4.2±0.17 h): 4.6 ± 0.19 h
- time point at which the cells heal a wound (t0.2; impedance saturation) (0.2 μM colchicine, Vero-E6 cells, control tc=4.2±0.17 h): 5.1 ± 0.21 h
- time point at which the cells heal a wound (t0.4; impedance saturation) (0.4 μM colchicine, Vero-E6 cells, control tc=4.2±0.17 h): 8.2 ± 0.42 h
- inhibition effect on Vero-E6 cell migration (average speed AS) (0.1, 0.2 and 0.4 μM, AS=R×t^−1, FIG. 7B): inhibits Vero-E6 cell migration in a drug concentration dependant manner
